Experimental findings from ChEMBL document CHEMBL1129670, “Synthesis and structure-activity relationships of N-propyl-N-(4-pyridinyl)-1H-indol-1-amine (besipirdine) and related analogs as potential therapeutic agents for Alzheimer's disease” (J Med Chem, 1996) are described below.

Broadly, the IC50 is the concentration that inhibits the measured activity by half. Low values mean inhibition by little substance, high ones a need for much substance.

Assay [1] concerns the target Muscarinic acetylcholine receptor. It is filed as cell membranes, Membrane.
Description: Inhibition of [3H]quinuclidinyl benzilate (QNB) binding from rat forebrain membranes in the absence of Zn
The target in assay [2] is T1, Adrenergic receptor alpha-1 (Rattus norvegicus, UniProt P15823+P23944+P43140).
T1 sequence (P15823 whole entry): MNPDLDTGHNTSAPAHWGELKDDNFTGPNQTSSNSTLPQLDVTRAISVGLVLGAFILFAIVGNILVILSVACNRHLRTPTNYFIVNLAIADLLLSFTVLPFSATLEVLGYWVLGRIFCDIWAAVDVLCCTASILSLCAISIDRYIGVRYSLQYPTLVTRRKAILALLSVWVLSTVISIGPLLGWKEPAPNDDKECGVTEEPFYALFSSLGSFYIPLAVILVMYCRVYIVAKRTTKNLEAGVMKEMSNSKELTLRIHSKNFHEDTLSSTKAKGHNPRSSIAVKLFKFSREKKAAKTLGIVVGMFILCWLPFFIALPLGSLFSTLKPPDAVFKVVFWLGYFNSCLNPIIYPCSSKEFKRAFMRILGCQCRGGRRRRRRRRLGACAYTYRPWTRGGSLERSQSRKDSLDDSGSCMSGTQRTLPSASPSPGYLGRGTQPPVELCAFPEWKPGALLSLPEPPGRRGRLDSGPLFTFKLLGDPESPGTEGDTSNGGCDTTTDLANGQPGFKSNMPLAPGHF
T1 sequence (P23944 whole entry): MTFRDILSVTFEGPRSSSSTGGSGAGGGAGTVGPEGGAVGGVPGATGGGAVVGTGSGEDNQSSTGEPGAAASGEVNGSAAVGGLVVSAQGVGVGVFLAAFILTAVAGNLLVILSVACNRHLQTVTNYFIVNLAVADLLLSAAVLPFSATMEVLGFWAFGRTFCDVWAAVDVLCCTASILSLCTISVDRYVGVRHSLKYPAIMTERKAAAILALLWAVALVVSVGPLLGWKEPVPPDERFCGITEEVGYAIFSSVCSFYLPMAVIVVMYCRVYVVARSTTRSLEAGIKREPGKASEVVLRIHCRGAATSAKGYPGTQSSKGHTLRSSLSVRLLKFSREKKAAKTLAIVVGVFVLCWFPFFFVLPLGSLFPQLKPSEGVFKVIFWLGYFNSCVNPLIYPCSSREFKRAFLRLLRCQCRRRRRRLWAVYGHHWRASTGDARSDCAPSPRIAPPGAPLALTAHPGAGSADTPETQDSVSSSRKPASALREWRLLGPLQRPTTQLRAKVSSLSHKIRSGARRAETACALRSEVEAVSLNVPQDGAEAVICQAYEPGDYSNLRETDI
T1 sequence (P43140 whole entry): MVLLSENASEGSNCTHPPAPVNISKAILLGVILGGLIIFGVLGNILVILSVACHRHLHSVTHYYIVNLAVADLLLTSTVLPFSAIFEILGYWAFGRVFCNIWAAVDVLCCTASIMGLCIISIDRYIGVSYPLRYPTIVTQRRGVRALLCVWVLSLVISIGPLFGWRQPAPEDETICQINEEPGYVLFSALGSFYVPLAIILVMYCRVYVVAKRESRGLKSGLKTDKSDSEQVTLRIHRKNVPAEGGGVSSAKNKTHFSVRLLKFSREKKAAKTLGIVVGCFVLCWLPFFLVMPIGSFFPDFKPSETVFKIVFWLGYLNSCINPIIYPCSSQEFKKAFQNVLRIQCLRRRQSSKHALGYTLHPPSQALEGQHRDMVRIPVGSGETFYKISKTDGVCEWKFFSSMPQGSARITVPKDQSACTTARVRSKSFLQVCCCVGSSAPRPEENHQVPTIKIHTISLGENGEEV
The assay can be described thus: Inhibitory activity against [3H]WB-4101 binding to Alpha-1 adrenergic receptor in rat whole brain membrane. The format is cell membranes.

Assay [3] is filed under the species Mus musculus. The assay can be described thus: Antagonistic activity against Scopolamine induced behavioral deficits in mice; 3/9. It is filed as functional.
Assay [4] concerns Mus musculus. In words: Antagonistic activity against Scopolamine induced behavioral deficits in mice at dose 0.04 mg/kg sc. As to conditions: route subcutaneous. It is filed as functional.
Assay [5] relates to Mus musculus. The assay can be described thus: Antagonistic activity against Scopolamine induced behavioral deficits in mice at dose 0.16 mg/kg sc. The format is functional. As to conditions: route subcutaneous.
Another assay has as its target Glutamate NMDA receptor. In words: Inhibitory activity against [3H]TCP binding to Phencyclidine receptor in rat cortex.
Assay [6] addresses T2, Muscarinic acetylcholine receptor M2 (Rattus norvegicus, UniProt P10980).
T2 sequence (P10980 whole entry): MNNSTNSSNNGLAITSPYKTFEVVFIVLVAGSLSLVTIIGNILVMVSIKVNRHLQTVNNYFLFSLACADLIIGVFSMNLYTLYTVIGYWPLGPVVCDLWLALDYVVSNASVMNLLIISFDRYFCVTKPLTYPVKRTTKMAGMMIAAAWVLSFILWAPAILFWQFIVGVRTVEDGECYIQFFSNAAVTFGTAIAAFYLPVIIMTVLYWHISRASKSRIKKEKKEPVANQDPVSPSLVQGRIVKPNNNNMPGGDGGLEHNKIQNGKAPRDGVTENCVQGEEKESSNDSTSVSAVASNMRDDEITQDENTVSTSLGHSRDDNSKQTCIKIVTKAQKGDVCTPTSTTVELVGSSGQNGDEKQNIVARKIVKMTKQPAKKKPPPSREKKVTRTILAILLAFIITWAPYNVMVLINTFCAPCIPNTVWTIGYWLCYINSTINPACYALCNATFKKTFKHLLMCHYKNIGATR
The assay can be described thus: Inhibitory activity against [3H]N-methyl-scopolamine binding to Muscarinic acetylcholine receptor M2 in rat cerebellum. It is filed as tissue-based.

The species named for assay [7] is Mus musculus. In words: Antagonistic activity against Scopolamine induced behavioral deficits in mice; 5/6. The format is functional.
A further assay concerns the target Mu-type opioid receptor (Rattus norvegicus, UniProt P33535). The assay can be described thus: Inhibitory activity against [3H]DHM binding to mu opioid receptor in rat whole brain.
The species named for another assay is Rattus norvegicus. In words: Inhibitory activity against [3H]norepinephrine (NE) uptake in rat whole brain. It is filed as functional.

Sequence of Mu-type opioid receptor (P33535 whole entry): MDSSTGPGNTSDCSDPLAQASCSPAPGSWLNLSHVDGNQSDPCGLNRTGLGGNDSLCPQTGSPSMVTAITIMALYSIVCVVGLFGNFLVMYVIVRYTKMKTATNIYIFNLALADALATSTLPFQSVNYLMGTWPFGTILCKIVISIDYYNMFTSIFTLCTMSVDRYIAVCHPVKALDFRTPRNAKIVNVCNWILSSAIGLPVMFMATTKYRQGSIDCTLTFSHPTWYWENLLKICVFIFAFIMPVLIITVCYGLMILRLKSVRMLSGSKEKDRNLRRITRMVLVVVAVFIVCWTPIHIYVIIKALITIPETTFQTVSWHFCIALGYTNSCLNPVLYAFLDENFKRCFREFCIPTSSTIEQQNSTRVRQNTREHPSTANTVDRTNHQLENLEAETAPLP

`CN(c1ccncc1)n1ccc2ccccc21`: the IC50 was found to be 9000 nM in [1] and 1200 nM in [2]. This compound showed an Antagonism in the assay listed under Mus musculus [3] of 3. The compound further returned a Response with Mus musculus [4] of 53%.
Consider `c1ccc2c(c1)ccn2Nc1ccncc1`, for which the IC50 in assay [1] was 40000 nM; in assay [2], 510 nM. In addition, the Antagonism in the assay filed under Mus musculus [3] is 3. The Response with Mus musculus [5] amounted to 23%.
With `CCCN(c1ccncc1)n1ccc2ccccc21` [BESIPIRDINE], the IC50 at Glutamate NMDA receptor is more than 20000 nM; in assay [1], 3000 nM; in assay [6] it was 1000 nM; in assay [2] it was 10000 nM; at Mu-type opioid receptor, more than 1000 nM; in the assay filed under Rattus norvegicus, 430 nM. In the assay listed under Mus musculus [7], this compound registered an Antagonism of 5. Moreover, the Response in the assay on Mus musculus [5] is listed as 27%; in the assay on Mus musculus [4], 30%.
